Common to all, as to type: functional
The test system of assay [1] is Mus musculus. As to the kind of experiment: Percent increase in life span was calculated against L1210 murine leukemia cells in BDF1 male mice at the specified in vivo dose of 3.5(mg/kg)/day.
In assay [2] the test system is Mus musculus. Description: Median day of death was calculated against L1210 murine leukemia cells in BDF1 male mice at the specified in vivo dose of 3.5(mg/kg)/day.
For assay [3], the system named is Mus musculus. As to the kind of experiment: Percent increase in life span was calculated against L1210 murine leukemia cells in BDF1 male mice at the specified in vivo dose of 120(mg/kg)/day.
Assay [4] relates to Mus musculus. Description: Median day of death was calculated against L1210 murine leukemia cells in BDF1 male mice at the specified in vivo dose of 120(mg/kg)/day.
The test system of assay [5] is Mus musculus. Description: Percent increase in life span was calculated against L1210 murine leukemia cells in BDF1 male mice at the specified in vivo dose of 90(mg/kg)/day.
Assay [6] concerns Mus musculus. Description: Median day of death was calculated against L1210 murine leukemia cells in BDF1 male mice at the specified in vivo dose of 90(mg/kg)/day.

With `COc1cccc2c1C(=O)c1c(O)c3c(c(O)c1C2=O)C[C@@](O)(C(=O)CO)C[C@@H]3O[C@H]1C[C@H](N)[C@H](O)[C@H](C)O1` [DOXORUBICIN], the Increase in life-span in the assay with Mus musculus [1] is listed as 40%. For the same molecule, the “Median day of death” value in the assay on Mus musculus [2] was 14.

As to `COc1cccc2c1C(=O)c1c(O)c3c(c(O)c1C2=O)C[C@@](O)(C(=O)CO)C[C@@H]3OC1OC(CO)C(O)C(O)C1N` (stereo partly specified), in the assay on Mus musculus [3], the Increase in life-span is reported as 40%. The “Median day of death” value with Mus musculus [4] is recorded as 14.

With `COc1cccc2c1C(=O)c1c(O)c3c(c(O)c1C2=O)C[C@@](O)(C(C)=O)C[C@@H]3O[C@@H]1O[C@H](CO)[C@@H](O)[C@H](O)[C@H]1N`, the Increase in life-span with Mus musculus [5] is 60%. The “Median day of death” value in the assay on Mus musculus [6] is recorded as 16.

Source of the values: ChEMBL document CHEMBL1121926, “Adriamycin analogues. Preparation and antitumor evaluation of 7-O-(beta-D-glucosaminyl)daunomycinone and 7-O-(beta-D-glucosaminyl)adriamycinone and their N-trifluoroacetyl derivatives” (1982).
